Results reported in PubChem BioAssay (NCI).
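Method: 48-hour compound exposure of cells in 96-well plates, five concentrations, linear interpolation of endpoints. Here, GI50 denotes the concentration required for 50% inhibition of growth. TGI marks complete inhibition of growth.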

Assays:
Assay in all cases: NCI tumour cell line growth inhibition, 48 h
[1] = system: 786-0 renal
[2] = system: A498 renal
[3] = system: A549 NSCLC
[4] = system: ACHN renal
[5] = system: BT-549 breast
[6] = system: CAKI-1 renal
[7] = system: CCRF-CEM leukemia
[8] = system: COLO 205 colon
[9] = system: DU-145 prostate
[10] = system: EKVX NSCLC
[11] = system: HCC-2998 colon
[12] = system: HCT-116 colon
[13] = system: HCT-15 colon
[14] = system: HL-60(TB) leukemia
[15] = system: HOP-62 NSCLC
[16] = system: HOP-92 NSCLC
[17] = system: HS 578T breast
[18] = system: HT29 colon
[19] = system: IGROV1 ovarian
[20] = system: K-562 leukemia
[21] = system: LOX IMVI melanoma
[22] = system: M14 melanoma
[23] = system: MALME-3M melanoma
[24] = system: MCF7 breast
[25] = system: MDA-MB-231 breast
[26] = system: MDA-MB-435
[27] = system: MOLT-4 leukemia
[28] = system: NCI-H226 lung
[29] = system: NCI-H23 lung
[30] = system: NCI-H460 lung
[31] = system: NCI-H522 lung
[32] = system: NCI/ADR-RES ovarian
[33] = system: OVCAR-3 ovarian
[34] = system: OVCAR-4 ovarian
[35] = system: OVCAR-5 ovarian
[36] = system: OVCAR-8 ovarian
[37] = system: PC-3 prostate
[38] = system: RPMI-8226 leukemia
[39] = system: RXF 393 renal
[40] = system: SF-295 CNS
[41] = system: SF-539 CNS
[42] = system: SK-MEL-2 melanoma
[43] = system: SK-MEL-28 melanoma
[44] = system: SK-MEL-5 melanoma
[45] = system: SK-OV-3 ovarian
[46] = system: SN12C renal
[47] = system: SNB-19 CNS
[48] = system: SNB-75 CNS
[49] = system: SR leukemia
[50] = system: T-47D breast
[51] = system: TK-10 renal
[52] = system: U251 CNS
[53] = system: UACC-257 melanoma
[54] = system: UACC-62 melanoma
[55] = system: UO-31 renal
[56] = system: KM12 colon
[57] = system: SF-268 CNS
[58] = system: SW-620 colon

Cc1cc(O)c(C2=NN(c3ccc(S(N)(=O)=O)cc3)C(c3ccccc3Cl)C2)cc1Cl (centres undefined)
GI50 [1]: 2250 nM | TGI [1]: 4.52 µM | GI50 [2]: 5010 nM | TGI [2]: 20.5 µM | GI50 [3]: 3820 nM | TGI [3]: 19.3 µM | GI50 [4]: 3340 nM | TGI [4]: 11 µM | GI50 [5]: 2160 nM | TGI [5]: 4.74 µM | GI50 [6]: 1780 nM | TGI [6]: 3.99 µM | GI50 [7]: 4810 nM | TGI [7]: > 100 µM | GI50 [8]: 1810 nM | TGI [8]: 3.31 µM | GI50 [9]: 2010 nM | TGI [9]: 3.85 µM | GI50 [10]: 1950 nM | TGI [10]: 4.6 µM | GI50 [11]: 2100 nM | TGI [11]: 3.91 µM | GI50 [12]: 1760 nM | TGI [12]: 3.15 µM | GI50 [13]: 3690 nM | TGI [13]: 16.6 µM | GI50 [14]: 3440 nM | TGI [14]: > 100 µM | GI50 [15]: 2030 nM | TGI [15]: 4.16 µM | GI50 [16]: 1940 nM | TGI [16]: 6.32 µM | GI50 [17]: 3280 nM | TGI [17]: > 100 µM | GI50 [18]: 1920 nM | TGI [18]: 3.63 µM | GI50 [19]: 2580 nM | TGI [19]: 14 µM | GI50 [20]: 3260 nM | TGI [20]: > 100 µM | GI50 [21]: 1780 nM | TGI [21]: 3.21 µM | GI50 [22]: 1850 nM | TGI [22]: 3.43 µM | GI50 [23]: 2620 nM | TGI [23]: 6.46 µM | GI50 [24]: 1750 nM | TGI [24]: 3.33 µM | GI50 [25]: 2140 nM | TGI [25]: 4.52 µM | GI50 [26]: 1850 nM | TGI [26]: 3.92 µM | GI50 [27]: 4040 nM | TGI [27]: > 100 µM | GI50 [28]: 3020 nM | TGI [28]: 9.44 µM | GI50 [29]: 1790 nM | TGI [29]: 3.58 µM | GI50 [30]: 2160 nM | TGI [30]: 4.21 µM | GI50 [31]: 1890 nM | TGI [31]: 3.97 µM | GI50 [32]: 2700 nM | TGI [32]: 6.85 µM | GI50 [33]: 1890 nM | TGI [33]: 3.58 µM | GI50 [34]: 2730 nM | TGI [34]: 8.48 µM | GI50 [35]: 1740 nM | TGI [35]: 3.3 µM | GI50 [36]: 2940 nM | TGI [36]: 11.2 µM | GI50 [37]: 1580 nM | TGI [37]: 3.32 µM | GI50 [38]: 2980 nM | TGI [38]: 8.35 µM | GI50 [39]: 3090 nM | TGI [39]: 8.22 µM | GI50 [40]: 1590 nM | TGI [40]: 3.18 µM | GI50 [41]: 1790 nM | TGI [41]: 3.25 µM | GI50 [42]: 11.9 µM | TGI [42]: 31 µM | GI50 [43]: 3.39 µM | TGI [43]: 12.3 µM | GI50 [44]: 3850 nM | TGI [44]: 12.3 µM | GI50 [45]: 3630 nM | TGI [45]: 10.4 µM | GI50 [46]: 2550 nM | TGI [46]: 6.32 µM | GI50 [47]: 3540 nM | TGI [47]: 16.3 µM | GI50 [48]: 2230 nM | TGI [48]: 8.83 µM | GI50 [49]: 2970 nM | TGI [49]: > 100 µM | GI50 [50]: 2810 nM | TGI [50]: 10.3 µM | GI50 [51]: 2640 nM | TGI [51]: 5.86 µM | GI50 [52]: 2250 nM | TGI [52]: 5.02 µM | GI50 [53]: 11.8 µM | TGI [53]: 79.6 µM | GI50 [54]: 3710 nM | TGI [54]: 14.4 µM | GI50 [55]: 2660 nM | TGI [55]: 16.2 µM

O=S(=O)(Nc1ccc(Br)c(Cl)c1)c1ccc(-c2cnc(C3CC3)o2)cc1
GI50 [1]: 574 nM | TGI [1]: 17.9 µM | GI50 [2]: 189 nM | TGI [2]: 0.845 µM | GI50 [3]: 789 nM | TGI [3]: 18.3 µM | GI50 [4]: 562 nM | TGI [4]: 18.2 µM | GI50 [5]: 682 nM | TGI [5]: 17.8 µM | GI50 [6]: 431 nM | TGI [6]: 16.4 µM | GI50 [7]: 411 nM | TGI [7]: > 45.9 µM | GI50 [8]: 765 nM | TGI [8]: 11.3 µM | GI50 [9]: 1520 nM | TGI [9]: 17.6 µM | GI50 [10]: 2070 nM | TGI [10]: 21 µM | GI50 [11]: 1610 nM | TGI [11]: 11.6 µM | GI50 [12]: 432 nM | TGI [12]: 13.6 µM | GI50 [13]: 445 nM | TGI [13]: 13.7 µM | GI50 [14]: 303 nM | TGI [14]: 4.96 µM | GI50 [15]: 580 nM | TGI [15]: 19 µM | GI50 [16]: 487 nM | TGI [16]: 8.72 µM | GI50 [17]: 351 nM | TGI [17]: 18.3 µM | GI50 [18]: 356 nM | TGI [18]: 5.23 µM | GI50 [19]: 577 nM | TGI [19]: 14.8 µM | GI50 [20]: 323 nM | TGI [20]: > 100 µM | GI50 [56]: 445 nM | TGI [56]: 14.9 µM | GI50 [21]: 565 nM | TGI [21]: 16.2 µM | GI50 [22]: 458 nM | TGI [22]: 14.1 µM | GI50 [24]: 339 nM | TGI [24]: 16 µM | GI50 [25]: 1910 nM | TGI [25]: 16.4 µM | GI50 [26]: 177 nM | TGI [26]: 2.45 µM | GI50 [27]: 688 nM | TGI [27]: > 50.4 µM | GI50 [28]: 1230 nM | TGI [28]: 18.8 µM | GI50 [29]: 1270 nM | TGI [29]: 15.6 µM | GI50 [30]: 415 nM | TGI [30]: 12.6 µM | GI50 [31]: 262 nM | TGI [31]: 10.7 µM | GI50 [32]: 430 nM | TGI [32]: 6.86 µM | GI50 [33]: 370 nM | TGI [33]: 7.32 µM | GI50 [34]: 2670 nM | TGI [34]: 21.9 µM | GI50 [35]: 1970 nM | TGI [35]: 14.1 µM | GI50 [36]: 1500 nM | TGI [36]: 21.4 µM | GI50 [37]: 493 nM | TGI [37]: 14.8 µM | GI50 [38]: 585 nM | TGI [38]: 64.8 µM | GI50 [39]: 348 nM | TGI [39]: 3.48 µM | GI50 [57]: 1560 nM | TGI [57]: 23.5 µM | GI50 [40]: 343 nM | TGI [40]: 3.41 µM | GI50 [41]: 374 nM | TGI [41]: 5.08 µM | GI50 [42]: 2.45 µM | TGI [42]: 24 µM | GI50 [43]: 4.35 µM | TGI [43]: 22 µM | GI50 [44]: 602 nM | TGI [44]: 13.9 µM | GI50 [45]: 1490 nM | TGI [45]: 24.2 µM | GI50 [46]: 1270 nM | TGI [46]: 16 µM | GI50 [47]: 517 nM | TGI [47]: 16.2 µM | GI50 [48]: 196 nM | TGI [48]: 0.662 µM | GI50 [49]: 380 nM | TGI [49]: > 49.4 µM | GI50 [58]: 392 nM | TGI [58]: 15.4 µM | GI50 [50]: 437 nM | TGI [50]: 21.1 µM | GI50 [51]: 2890 nM | TGI [51]: 20.6 µM | GI50 [52]: 507 nM | TGI [52]: 15.4 µM | GI50 [53]: 2.08 µM | TGI [53]: 25.9 µM | GI50 [54]: 372 nM | TGI [54]: 13.6 µM | GI50 [55]: 1110 nM | TGI [55]: 13.6 µM
